Columns and labels:
Assay type in all cases: in vivo
[1] = tested on: Alopecurus myosuroides (ALOMY); test: Test 1A glasshouse assay for herbicidal activity, post-emergence; conditions: 312 h, evaluated after 13 days, read-out: percentage phytotoxicity ALOMY
Procedure: (§1) Seeds of a variety of test species were sown in standard soil in pots. After cultivation for one day (pre-emergence) or after 8 days cultivation (post-emergence) under controlled conditions in a glasshouse (at 24/16° C., day/night; 14 hours light; 65% humidity), the plants were sprayed with an aqueous spray solution derived from the formulation of the technical active ingredient in acetone/I water (50:50) solution containing 0.5% Tween 20 (polyoxyethelyene sorbitan monolaurate, CAS RN 9005-64-5). The test plants were then grown in a glasshouse under controlled conditions in a glasshouse (at 24/16° C., day/night; 14 hours light; 65% humidity) and watered twice daily. After 13 days for pre and post-emergence, the test was evaluated visually for percentage phytotoxicity to the plant (where 100=total damage to plant; 0=no damage to plant).
(§2) Alopecurus myosuroides (ALOMY), Setaria faberi (SETFA), Echinochloa crus-galli (ECHCG), Solanum nigrum (SOLNI), Amaranthus retroflexus (AMARE), Ipomoea hederacea (IPOHE), and Abutilon theophasti Medik. (ABUTH, common English name “velvetleaf”). Of these, Alopecurus myosuroides (ALOMY), Setaria faberi (SETFA), and Echinochloa crus-galli (ECHCG) are grassy monocotyledonous weeds.

[2] = tested on: Echinochloa crus-galli (ECHCG); test: as above; conditions: 312 h, evaluated after 13 days, read-out: percentage phytotoxicity ECHCG
Procedure: as §1, §2

Setaria faberi (SETFA) [3] = test: as above; conditions: 312 h, evaluated after 13 days, read-out: percentage phytotoxicity SETFA
Procedure: as §1, §2

[4] = tested on: Abutilon theophasti Medik. (ABUTH); test: as above; conditions: 312 h, evaluated after 13 days, read-out: percentage phytotoxicity ABUTH
Procedure: as §1, §2

[5] = tested on: Amaranthus retroflexus (AMARE); test: as above; conditions: 312 h, evaluated after 13 days, read-out: percentage phytotoxicity AMARE
Procedure: as §1, §2

[6] = tested on: Abutilon theophasti Medik. (ABUTH); test: Biological Example 2 comparative herbicidal data, post-emergence glasshouse screen; conditions: read-out: Post-emergence herbicidal activities (percentage phytotoxicity) ABUTH; for pest or weed control at 8 g/ha: 8 g/ha application rate; for pest or weed control at 30 g/ha: 30 g/ha application rate
[7] = tested on: Amarantus retroflexus (AMARE); test: as above; conditions: Amaranthus retroflexus, read-out: Post-emergence herbicidal activities (percentage phytotoxicity) AMARE; for pest or weed control at 8 g/ha: 8 g/ha application rate; for pest or weed control at 30 g/ha: 30 g/ha application rate
[8] = tested on: Alopecurus myosuroides (ALOMY); test: Test 1A glasshouse assay for herbicidal activity, pre-emergence; conditions: 312 h, 250 g/ha, evaluated after 13 days, read-out: percentage phytotoxicity ALOMY
Procedure: as §1, §2

[9] = tested on: Echinochloa crus-galli (ECHCG); test: as above; conditions: 312 h, 250 g/ha, evaluated after 13 days, read-out: percentage phytotoxicity ECHCG
Procedure: as §1, §2

Setaria faberi (SETFA) [10] = test: as above; conditions: 312 h, 250 g/ha, evaluated after 13 days, read-out: percentage phytotoxicity SETFA
Procedure: as §1, §2

[11] = tested on: Abutilon theophasti Medik. (ABUTH); test: as above; conditions: 312 h, 250 g/ha, evaluated after 13 days, read-out: percentage phytotoxicity ABUTH
Procedure: as §1, §2

[12] = tested on: Amaranthus retroflexus (AMARE); test: as above; conditions: 312 h, 250 g/ha, evaluated after 13 days, read-out: percentage phytotoxicity AMARE
Procedure: as §1, §2

[13] = tested on: Alopecurus myosuroides (ALOMY); test: Biological Example 2 comparative herbicidal data, post-emergence glasshouse screen; conditions: 312 h, read-out: Post-emergence herbicidal activities (percentage phytotoxicity) ALOMY; for pest or weed control at 8 g/ha: 8 g/ha application rate; for pest or weed control at 30 g/ha: 30 g/ha application rate
Procedure: as §1
(§3) Comparative herbicidal data is given below for certain exemplified compounds with 4-(prop-1-ynyl)-2,6-dimethylphenyl or 4-(chloroethynyl)-2,6-dimethylphenyl headgroups, compared to the corresponding compounds with either 4-ethynyl-2,6-dimethylphenyl or 2,4,6-trimethylphenyl headgroups, as follows. Comparative herbicidal data is also given below for certain exemplified compounds with 4-(prop-1-ynyl)-2-chloro-6-methoxyphenyl headgroups, compared to the corresponding compounds with 4-ethynyl-2-chloro-6-methoxyphenyl or 4-(but-1-ynyl)-2-chloro-6-methoxyphenyl or 4-methyl-2-chloro-6-methoxyphenyl or 2-chloro-6-methoxyphenyl headgroups, as follows.
(§4) Except where specified otherwise, the glasshouse screen for herbicidal activity is substantially the same as that presented in Biological Example 1A (Test 1A) hereinabove. The weed abbreviations are as defined in Biological Example 1A.

[14] = tested on: Echinochloa crus-galli (ECHCG); test: as above; conditions: 312 h, read-out: Post-emergence herbicidal activities (percentage phytotoxicity) ECHCG; for pest or weed control at 8 g/ha: 8 g/ha application rate; for pest or weed control at 30 g/ha: 30 g/ha application rate
Procedure: as §1, §3, §4

Setaria faberi (SETFA) [15] = test: as above; conditions: 312 h, read-out: Post-emergence herbicidal activities (percentage phytotoxicity) SETFA; for pest or weed control at 8 g/ha: 8 g/ha application rate; for pest or weed control at 30 g/ha: 30 g/ha application rate
Procedure: as §1, §3, §4

Compound | pest or weed control at 250 g/ha [1] [%] | pest or weed control at 250 g/ha [2] [%] | pest or weed control at 250 g/ha (Setaria faberi (SETFA) [3]) [%] | pest or weed control at 250 g/ha [4] [%] | pest or weed control at 250 g/ha [5] [%] | pest or weed control at 8 g/ha [6] [%] | pest or weed control at 30 g/ha [6] [%] | pest or weed control at 8 g/ha [7] [%] | pest or weed control at 30 g/ha [7] [%] | pest or weed control at 250 g/ha [8] [%] | pest or weed control at 250 g/ha [9] [%] | pest or weed control at 250 g/ha (Setaria faberi (SETFA) [10]) [%] | pest or weed control at 250 g/ha [11] [%] | pest or weed control at 250 g/ha [12] [%] | pest or weed control at 8 g/ha [13] [%] | pest or weed control at 30 g/ha [13] [%] | pest or weed control at 8 g/ha [14] [%] | pest or weed control at 30 g/ha [14] [%] | pest or weed control at 8 g/ha (Setaria faberi (SETFA) [15]) [%] | pest or weed control at 30 g/ha (Setaria faberi (SETFA) [15]) [%] | other results
CC#Cc1cc(Cl)c(C2C(=O)CCCC2=O)c(OC)c1 [Compound A-22, 2-(2-Chloro-6-methoxy-4-prop-1-ynyl-phenyl)cyclohexane-1,3-dione] | 90 | 100 | 100 | 70 | 0 | 0 | 10 | 0 | 20 | 90 | 100 | 100 | 60 | 70 | 10 | 60 | 80 | 90 | 70 | 80 | pest or weed control at 30 g/ha [1]: 60%; pest or weed control at 30 g/ha [2]: 90%; pest or weed control at 30 g/ha (Setaria faberi (SETFA) [3]): 80%; pest or weed control at 30 g/ha [4]: 10%; pest or weed control at 30 g/ha [5]: 20%
C#Cc1cc(Cl)c(C2C(=O)C3CCC(C3)C2=O)c(OC)c1 (stereo not drawn) [Compound B-3, 3-(2-Chloro-4-ethynyl-6-methoxy-phenyl)bicyclo[3.2.1]octane-2,4-dione] | 80 | 100 | 90 | 0 | 0 | 0 | 0 | 0 | 0 | 80 | 90 | 100 | 100 | 90 | 0 | 30 | 20 | 70 | 20 | – | –
C#Cc1cc(Cl)c(C2C(=O)CCCC2=O)c(OC)c1 [Compound B-2, 2-(2-Chloro-4-ethynyl-6-methoxy-phenyl)-3-hydroxy-cyclohex-2-en-1-one] | 70 | 100 | 90 | 0 | 0 | 0 | 0 | 0 | 0 | 60 | 90 | 90 | 10 | 10 | 0 | 0 | 0 | 80 | 10 | 70 | –
CSC(C)CC1CC(=O)C(c2c(C)cc(C)cc2C)C(=O)C1 (stereo not drawn) [Compound X-8, reference compound] | – | – | – | – | – | – | 0 | – | 0 | – | – | – | – | – | – | 70 | – | 70 | – | 80 | –
CCC#Cc1cc(Cl)c(C2C(=O)C3CCC(C3)C2=O)c(OC)c1 (stereo not drawn) [Compound B-4] | 100 | 100 | 90 | 70 | 30 | – | 0 | – | 20 | 100 | 100 | 70 | 10 | 40 | – | 60 | – | 80 | – | 70 | –
CSCCC1CC(=O)C(c2c(C)cc(C)cc2C)C(=O)C1 (stereo not drawn) [Compound X-7, reference compound] | – | – | – | – | – | 0 | 0 | 0 | 0 | – | – | – | – | – | 0 | 30 | 0 | 10 | 0 | 20 | –
COc1cccc(Cl)c1C1C(=O)CC2(CCOCC2)CC1=O [Compound X-6, reference compound] | – | – | – | – | – | – | 0 | – | 20 | – | – | – | – | – | – | 20 | – | 10 | – | 10 | –
CC#Cc1cc(C)c(C2C(=O)CC(CC(C)SC)CC2=O)c(C)c1 (stereo not drawn) [Compound A-24, 2-(2,6-Dimethyl-4-prop-1-ynyl-phenyl)-5-(2-methylsulfanylpropyl)cyclohexane-1,3-dione] | 100 | 100 | 100 | 60 | 60 | – | 0 | – | 0 | 90 | 100 | 100 | 20 | 80 | – | 90 | – | 100 | – | 100 | pest or weed control at 30 g/ha [1]: 90%; pest or weed control at 30 g/ha [2]: 100%; pest or weed control at 30 g/ha (Setaria faberi (SETFA) [3]): 100%; pest or weed control at 30 g/ha [4]: 0%; pest or weed control at 30 g/ha [5]: 0%
COc1cc(C)cc(Cl)c1C1C(=O)C2CCC(C2)C1=O (stereo not drawn) [Compound X-5, reference compound] | – | – | – | – | – | 0 | 10 | 30 | 30 | – | – | – | – | – | 0 | 30 | 0 | 80 | 20 | 60 | –

From US9615577B2, “Herbicidally active cyclic dione compounds, or derivatives therefor, substituted by a phenyl which has an alkynyl-containing substituent” (Syngenta Limited, priority 2012, dated 2017)
